This is an account of results in patent US7087628B2, “N-heterocyclyl hydrazides as neurotrophic agents” (Ortho-McNeil Pharmaceutical, Inc., priority 2001, dated 2006).

The subject of this assay is Primary Rat Hippocampal Cells. Nature of the assay: Neurite outgrowth assay in primary rat hippocampal cells (MAP-2 immunofluorescence). The class given is cell-based. To be noted: neurite outgrowth response reported as percent of DMSO-treated control; MAP-2 fluorescence; cells 7 days in culture. How it is done:
Hippocampal cells were dissected from the brains of embryonic day 18 rat pups and dissociated with trypsin (1 mg/mL) and trituration. Cells were seeded at 30,000 cells/well in 96-well plates filled with 100 μL MEM and 10% FBS. At 7 days in culture, cells were fixed with 4% paraformaldehyde and immuno-fluorescence was performed.
Cultures were incubated with normal horse serum (1:50; Vector Labs) for about 20 min, rinsed and then incubated with primary antibody, microtubule associated-protein 2 (anti-mouse MAP-2; 1:1000; Chemicon) for about 2 h at about RT. Following primary antibody, cultures were rinsed and incubated with fluorescein anti-mouse IgG (rat absorbed; 1:50; Vector Labs) for about 1 h. After fluorescein incubation, the cultures were rinsed and read in PBS on a fluorescent plate reader (excitation: 485 nm; emission: 530 nm). A compound was regarded as active if the neurite outgrowth response was greater than the mean DMSO-treated control response on the same plate. The response to test compound was reported as percent of DMSO-treated control. The signal-to-noise separation was consistent: the fluorescence from DMSO control wells is at least two-fold greater than blank wells.
In the case of `CCC(C)(C)C(=O)C(=O)N1CCCC1C(=O)NNc1ccc2ccccc2n1` (stereo not shown) [(2)], the “Rat Hippocampal Cell Response” value is given as 107. To `CCC(C)(C)C(=O)C(=O)N1CCCC1C(=O)NNc1ccncc1Br` (stereo not shown) [(3)] belongs 106; to `CCC(C)(C)C(=O)C(=O)N1CCCC1C(=O)NNc1cc(C)c2c(C)nn(C)c2n1` (stereo not shown) [(4)], 105. With `CCC(C)(C)C(=O)C(=O)N1CCCC1C(=O)NNc1c([N+](=O)[O-])c(C)nn1C` (stereo not shown) [(5)] the figure was <100. `CCC(C)(C)C(=O)C(=O)N1CCCC1C(=O)NNc1cc(C(F)(F)F)cc(C)n1` (stereo not shown) [(6)]: the “Rat Hippocampal Cell Response” value is <100. With `CCC(C)(C)C(=O)C(=O)N1CCCC1C(=O)NN(C)c1cc(C(F)(F)F)cc(C)n1` (stereo not shown) [(7)] the figure was <100; with `CCC(C)(C)C(=O)C(=O)N1CCCC1C(=O)NNc1ncc(C(F)(F)F)cc1Cl` (stereo not shown) [(8)], 106. In the case of `CCC(C)(C)C(=O)C(=O)N1CCCC1C(=O)NNc1ccccn1` (stereo not shown) [Compound (1), 1-(3,3-Dimethyl-2-oxo-pentanoyl)-pyrrolidine-2-carboxylic acid N′-pyridine-2-yl-hydrazide], the “Rat Hippocampal Cell Response” value is 157.

For `Cc1cc(C(F)(F)F)cc(NNC(=O)C2CCCCN2C(=O)C(=O)c2cccs2)n1` (stereo not shown) [Compound (9), 1-(2-Oxo-2-thiophen-2-yl-acetyl)piperidine-2-carboxylic acid N′-(6-methyl-4-trifluoromethyl-pyridin-2-yl)-hydrazide], the “Rat Hippocampal Cell Response” value is reported as 118. To `O=C(NNc1ccccn1)[C@@H]1CCN1S(=O)(=O)Cc1ccccc1` [Compound (10), 2-Azetidinecarboxylic acid, 1-[(phenylmethyl)sulfonyl]-, 2-(2-pyridinyl)hydrazide, (2S)-] belongs 115.
